From US20070037831A1, “Methods of using PDE 5 inhibitors for the treatment of congestive heart failure” (priority 2004, published 2007)

Molecular target: T1, ETA receptor (Homo sapiens, UniProt P25101)
T1 sequence (P25101 21-427): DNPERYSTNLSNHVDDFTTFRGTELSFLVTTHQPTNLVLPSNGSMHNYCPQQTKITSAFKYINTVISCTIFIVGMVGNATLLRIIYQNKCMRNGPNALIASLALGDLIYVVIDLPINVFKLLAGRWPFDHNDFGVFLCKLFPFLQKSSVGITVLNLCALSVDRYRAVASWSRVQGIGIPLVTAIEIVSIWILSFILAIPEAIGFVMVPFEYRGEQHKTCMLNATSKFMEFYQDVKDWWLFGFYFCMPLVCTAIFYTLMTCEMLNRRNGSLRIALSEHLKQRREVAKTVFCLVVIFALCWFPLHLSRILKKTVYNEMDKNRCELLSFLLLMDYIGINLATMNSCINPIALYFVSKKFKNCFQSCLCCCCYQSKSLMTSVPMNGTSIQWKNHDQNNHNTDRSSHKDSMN
Experiment: not given
Conditions: among the ETA receptor antagonists; cited from earlier work

Compound | selectivity over ETB
Cc1cc2c(cc1CC(=O)c1sccc1S(=O)(=O)Nc1onc(C)c1Cl)OCO2 [sitaxsentan] | particularly selective over ETB

Molecular target: PDE V (Homo sapiens, UniProt O76074)
Experiment: PDE V inhibition (PDE V IC50)
Format: biochemical
Conditions: not given

Compound | IC50
Cn1c(=O)c2c(nc(NC3CCCCC3)n2Cc2ccc(F)cc2)n(C)c1=O [Compound 138] | 15 to 100 nM
COc1ccc(Cn2c(NC3CCCC3)nc3c2c(=O)n(C)c(=O)n3CC(C)C)cc1 [Compound 30] | 15 to 100 nM
CCn1c(=O)c2c(nc(N[C@@H]3CCCC[C@H]3O)n2Cc2ccc(OC)c(Br)c2)n(CCO)c1=O [Compound 185] | 15 to 100 nM
CCn1c(=O)c2c(nc(NC3CCS(=O)(=O)CC3)n2Cc2ccc(OC)c(Cl)c2)n(CC)c1=O [Compound 193] | 15 to 100 nM
COc1ccc(Cn2c(NC3CCCCC3)nc3c2c(=O)n(C)c(=O)n3C)cc1 [Compound 33] | 10 to 15 nM
CCn1c(=O)c2c(nc(NC3CCCC3)n2Cc2ccc(OC)cc2)n(CC(C)C)c1=O [Compound 38] | 15 to 100 nM
CCn1c(=O)c2c(nc(NC3(CO)CC=CC3)n2Cc2ccccc2)n(CC(C)C)c1=O [Compound 57] | 15 to 100 nM
CCn1c(=O)c2c(nc(NC3CCCCC3)n2Cc2ccc(C(=O)O)cc2)n(CC)c1=O [Compound 98] | 15 to 100 nM
CCn1c(=O)c2c(nc(NC3CCCCC3)n2Cc2ccc(S(N)(=O)=O)c(Cl)c2)n(CCO)c1=O [Compound 183] | 5 to 10 nM
CCCn1c(=O)n(CC)c(=O)c2c1nc(NC1CCCCC1)n2Cc1ccc(O)c(C)c1 [Compound 178] | ≤ 5 nM
CCn1c(=O)[nH]c2nc(NC3CCCCC3)n(Cc3ccc(O)cc3)c2c1=O [Compound 94] | 10 to 15 nM
COc1ccc(Cn2c(NC3CCCCC3)nc3c2c(=O)n(C)c(=O)n3CC(C)C)cc1 [Compound 31] | 15 to 100 nM
Cn1c(=O)c2c(nc(NC3CCCCC3)n2Cc2ccccc2F)n(C)c1=O [Compound 136] | 10 to 15 nM
Cn1c(=O)c2c(nc(NC3CCCCC3)n2Cc2cccc(F)c2)n(C)c1=O [Compound 137] | 15 to 100 nM
CCCn1c(=O)n(CC)c(=O)c2c1nc(NC1CCCCC1)n2Cc1ccc(OC)c(C)c1 [Compound 176] | 15 to 100 nM
Cn1c(=O)c2c(nc(NC3CCC3)n2Cc2ccc(O)cc2)n(C)c1=O [Compound 66] | 5 to 10 nM
COc1ccc(Cn2c(NC3CCC3)nc3c2c(=O)n(C)c(=O)n3C)cc1 [Compound 42] | 15 to 100 nM
Cn1c(=O)c2c(nc(NC3CCCC3)n2Cc2ccc(O)cc2)n(C)c1=O [Compound 36] | 5 to 10 nM
CCn1c(=O)c2c(nc(NC3CCCCC3)n2Cc2ccc(S(N)(=O)=O)c(Cl)c2)n(CC)c1=O [Compound 179] | ≤ 5 nM

Molecular target: T2, type V phosphodiesterase (Homo sapiens, UniProt O76074)
T2 construct: endogenous in cells; host or cells: vasculature of patients with heart failure (in vivo)
Experiment: not given
Conditions: patients with heart failure, acute; cited from earlier work

Compound | endothelium dependent vasodilation
CCCc1nn(C)c2c(=O)[nH]c(-c3cc(S(=O)(=O)N4CCN(C)CC4)ccc3OCC)nc12 [Sildenafil] | acutely enhance endothelium dependent vasodilation
